# Measured values from patent US20230107642A1 (Erasca, Inc., priority 2020, published 2023).
# Molecular target: T1, Cys12 of the KRAS 4B G12C protein (Homo sapiens, UniProt P01116, G12C)
# T1 construct: This protein contained 188 amino acids in total, including an N-terminal 6-Histidine tag; made in house; host or cells: E. coli BL21
# Test: In vitro covalent adduct formation (CAF) assay, LC-MS intact mass
# Assay type: binding
# Conditions: 10 uM compound, 60 min
# Method in brief: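 GDP-loaded (>95%) His-TEV-tagged KRAS 4B G12C (residues 1–169), 5 μM in TBS pH 7.4, incubated with 10 μM compound (4% DMSO) at 22° C for one hour. Intact-protein LC-MS gave free:adduct ratios, reported as percent protein modified; duplicate runs.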
row,SMILES,% CAF 10 uM @ 60 min
1,"C=CC(=O)N1[C@H](C)CN(c2nc(=O)n3c4c(c(-c5ccc(F)cc5F)c(C(F)(F)F)cc24)SC[C@@H]3C)C[C@@H]1C [Example 1427, (3S)-7-((3S,5R)-4-acryloyl-3,5-dimethylpiperazin-1-yl)-10-(2,4-difluorophenyl)-3-methyl-9-(trifluoromethyl)-2,3-dihydro-5H-[1,4]thiazino[2,3,4-ij]quinazolin-5-one]",95%
2,"C=CC(=O)N1[C@H](C)CN(c2nc(=O)n3c4c(c(-c5ccc(F)cc5F)c(C(F)(F)F)cc24)SCC(CO)(CO)C3)C[C@@H]1C [Example 1442, 8-((3S,5R)-4-acryloyl-3,5-dimethylpiperazin-1-yl)-11-(2,4-difluorophenyl)-3,3-bis(hydroxymethyl)-10-(trifluoromethyl)-3,4-dihydro-2H,6H-[1,4]thiazepino[2,3,4-ij]quinazolin-6-one]",93%
3,"C=CC(=O)N1[C@H](C)CN(c2nc(=O)n3c4c(c(-c5ccc(F)cc5)c(C(F)(F)F)cc24)SC[C@@H](N2CCCC2=O)C3)C[C@@H]1C [Example 1450, (S)-8-((3S,5R)-4-acryloyl-3,5-dimethylpiperazin-1-yl)-11-(4-fluorophenyl)-3-(2-oxopyrrolidin-1-yl)-10-(trifluoromethyl)-3,4-dihydro-2H,6H-[1,4]thiazepino[2,3,4-ij]quinazolin-6-one]",96%
4,"C=CC(=O)N1CCN(c2nc(=O)n3c4c(c(-c5ccc(F)cc5F)c(C(F)(F)F)cc24)SC[C@@H]3CN2CCN(CC)CC2)CC1 (atropisomer, axis not shown) [Example 1317, (3S,10S)-7-(4-acryloylpiperazin-1-yl)-10-(2,4-difluorophenyl)-3-((4-ethylpiperazin-1-yl)methyl)-9-(trifluoromethyl)-2,3-dihydro-5H-[1,4]thiazino[2,3,4-ij]quinazolin-5-one]",98.3%
5,"C=CC(=O)N1[C@H](C)CN(c2nc(=O)n3c4c(c(-c5ccc(F)cc5)c(C(F)(F)F)cc24)SC[C@@H](COC)C3)C[C@@H]1C [Example 1407, (R)-8-((3S,5R)-4-acryloyl-3,5-dimethylpiperazin-1-yl)-11-(4-fluorophenyl)-3-(methoxymethyl)-10-(trifluoromethyl)-3,4-dihydro-2H,6H-[1,4]thiazepino[2,3,4-ij]quinazolin-6-one]",92.7%
6,"C=CC(=O)N1[C@H](C)CN(c2nc(=O)n3c4c(c(-c5cc(Cl)c(F)cc5F)c(C(F)(F)F)cc24)SC[C@@H](N2CCCC2)C3)C[C@@H]1C (atropisomer, axis not shown) [Example 1441, (3S,11R)-8-((3S,5R)-4-acryloyl-3,5-dimethylpiperazin-1-yl)-11-(5-chloro-2,4-difluorophenyl)-3-(pyrrolidin-1-yl) 10-(trifluoromethyl)-3,4-dihydro-2H,6H-[1,4]thiazepino[2,3,4-ij]quinazolin-6-one]",79%

# The next lines start with the values.
row,% CAF 10 uM @ 60 min,SMILES
1,96.3%,"C=CC(=O)N1C[C@H](C)N(c2nc(=O)n3c4c(c(-c5ccc(F)cc5F)c(C(F)(F)F)cc24)SC[C@@H]3CN2CCC3(CC2)COC3)C[C@H]1C (atropisomer, axis not shown) [Example 1315, (3S,10R)-3-((2-oxa-7-azaspiro[3.5]nonan-7-yl)methyl)-7-((2S,5R)-4-acryloyl-2,5-dimethylpiperazin-1-yl)-10-(2,4-difluorophenyl)-9-(trifluoromethyl)-2,3-dihydro-5H-[1,4]thiazino[2,3,4-ij]quinazolin-5-one]"
2,96.7%,"C=CC(=O)N1CCN(c2nc(=O)n3c4c(c(-c5cc(Cl)c(F)cc5F)c(C(F)(F)F)cc24)SC[C@@H]3CN2CCN(CC)CC2)CC1 (atropisomer, axis not shown) [Example 1337, (3S,10S)-7-(4-acryloylpiperazin-1-yl)-10-(5-chloro-2,4-difluorophenyl)-3-((4-ethylpiperazin-1-yl)methyl)-9-(trifluoromethyl)-2,3-dihydro-5H-[1,4]thiazino[2,3,4-ij]quinazolin-5-one]"
3,61%,"C=CC(=O)N1[C@H](C)CN(c2nc(=O)n3c4c(c(-c5ccc(F)cc5)c(C(F)(F)F)cc24)SC[C@@H]3CN2CCN(C3CC3)CC2)C[C@@H]1C [Example 1333, (S)-7-((3S,5R)-4-acryloyl-3,5-dimethylpiperazin-1-yl)-3-((4-cyclopropylpiperazin-1-yl)methyl)-10-(4-fluorophenyl)-9-(trifluoromethyl)-2,3-dihydro-5H-[1,4]thiazino[2,3,4-ij]quinazolin-5-one]"

# Same assay, conditions: 10 uM compound, 60 min incubation
row,% CAF 10 uM @ 60 min,SMILES
1,95.9%,"C=CC(=O)N1[C@H](C)CN(c2nc(=O)n3c4c(c(-c5cc(Cl)c(F)cc5F)c(C(F)(F)F)cc24)SC[C@@H]3COC)C[C@@H]1C (single isomer, unassigned) [Example 1139]"
2,96.2%,"C=CC(=O)N1[C@H](C)CN(c2nc(=O)n3c4c(c(-c5cc(Cl)c(F)cc5F)c(C(F)(F)F)cc24)SCC2(COC2)C3)C[C@@H]1C (atropisomer, axis not shown) [Example 1124, (R)-8′-((3S,5R)-4-acryloyl-3,5-dimethylpiperazin-1-yl)-11′-(5-chloro-2,4-difluorophenyl)-10′-(trifluoromethyl)-2′H,4′H,6′H-spiro[oxetane-3,3′-[1,4]thiazepino [2,3,4-ij]quinazolin]-6′-one]"
3,76.8%,"C=CC(=O)N1[C@H](C)CN(c2nc(=O)n3c4c(c(-c5ccc(F)cc5)c(C(F)(F)F)cc24)SC[C@@H](N2CCOCC2)C3)C[C@@H]1C [Example 1134, (S)-8-((3S,5R)-4-acryloyl-3,5-dimethylpiperazin-1-yl)-11-(4-fluorophenyl)-3-morpholino-10-(trifluoromethyl)-3,4-dihydro-[1,4]thiazepino [2,3,4-ij]quinazolin-6(2H)-one]"

# Same assay, conditions: 10 μM compound, after 1 hour
row,SMILES,CAF (% after 1 hour)
1,"C=CC(=O)N1CCN(c2nc(=O)n3c4c(c(-c5cc(Cl)c(F)cc5F)c(C(F)(F)F)cc24)SC[C@@H](OC)C3)[C@@H]2CSC[C@@H]21 [Example 1214, (3S)-8-((4aR,7aS)-4-acryloylhexahydrothieno[3,4-b]pyrazin-1(2H)-yl)-11-(5-chloro-2,4-difluorophenyl)-3-methoxy-10-(trifluoromethyl)-3,4-dihydro-2H,6H-[1,4]thiazepino[2,3,4-ij]quinazolin-6-one]",49%
2,"C=CC(=O)N1[C@H](C)CN(c2nc(=O)n3c4c(c(-c5cc(Cl)c(F)cc5F)c(C(F)(F)F)cc24)SCC2(CC2)C3)C[C@@H]1C [Example 1237, 8′-((3S,5R)-4-acryloyl-3,5-dimethylpiperazin-1-yl)-11′-(5-chloro-2,4-difluorophenyl)-10′-(trifluoromethyl)-2′H,4′H,6′H-spiro[cyclopropane-1,3′-[1,4]thiazepino[2,3,4-ij]quinazolin]-6′-one]",90%

# Other lines, results leading:
row,CAF (% after 1 hour),SMILES
1,95%,"C=CC(=O)N1[C@H](C)CN(c2nc(=O)n3c4c(c(-c5ccc(F)cc5F)c(C(F)(F)F)cc24)SC[C@@H](OCC)C3)C[C@@H]1C [Example 1205, (3S)-8-((3S,5R)-4-acryloyl-3,5-dimethylpiperazin-1-yl)-11-(2,4-difluorophenyl)-3-ethoxy-10-(trifluoromethyl)-3,4-dihydro-2H,6H-[1,4]thiazepino[2,3,4-ij]quinazolin-6-one]"
2,70%,"C=CC(=O)N1[C@H](C)CN(c2nc(=O)n3c4c(c(-c5nc(N)c(F)cc5F)c(C(F)(F)F)cc24)SC[C@@H](OC)C3)C[C@@H]1C [Example 1242, (3S)-8-((3S,5R)-4-acryloyl-3,5-dimethylpiperazin-1-yl)-11-(6-amino-3,5-difluoropyridin-2-yl)-3-methoxy-10-(trifluoromethyl)-3,4-dihydro-2H,6H-[1,4]thiazepino[2,3,4-ij]quinazolin-6-one]"
3,95%,"C=CC(=O)N1[C@H](C)CN(c2nc(=O)n3c4c(c(-c5cc(C(F)(F)F)ns5)c(C(F)(F)F)cc24)SC[C@@H](OC)C3)C[C@@H]1C [Example 1215, (S)-8-((3S,5R)-4-acryloyl-3,5-dimethylpiperazin-1-yl)-3-methoxy-10-(trifluoromethyl)-11-(3-(trifluoromethyl)isothiazol-5-yl)-3,4-dihydro-2H,6H-[1,4]thiazepino[2,3,4-ij]quinazolin-6-one]"

# Same assay, conditions: after 60 min
row,SMILES,CAF (% binding after 60 min)
1,"C=CC(=O)N1CCN(c2nc(=O)n3c4c(c(-c5ccc(F)cc5)c(C(F)(F)F)cc24)SC[C@H](OCCOC)C3)CC1 [Example 1016, (R)-8-(4-acryloylpiperazin-1-yl)-11-(4-fluorophenyl)-3-(2-methoxyethoxy)-10-(trifluoromethyl)-3,4-dihydro-2H,6H-[1,4]thiazepino[2,3,4-ij]quinazolin-6-one]",98%
2,"C=CC(=O)N1[C@H](C)CN(c2nc(=O)n3c4c(c(-c5ccc(F)cc5)c(Cl)cc24)SC[C@@H](OC)C3)C[C@@H]1C [Example 1040, (S)-8-((3S,5R)-4-acryloyl-3,5-dimethylpiperazin-1-yl)-10-chloro-11-(4-fluorophenyl)-3-methoxy-3,4-dihydro-2H,6H-[1,4]thiazepino[2,3,4-ij]quinazolin-6-one]",96%

# The next lines start with the values.
row,CAF (% binding after 60 min),SMILES
1,96%,"C=CC(=O)N1[C@H](C)CN(c2nc(=O)n3c4c(c(-c5ccc(F)c(Cl)c5)c(C(F)(F)F)cc24)SC[C@@H](OCOC)C3)C[C@@H]1C [Example 1014, (S)-8-((3S,5R)-4-acryloyl-3,5-dimethylpiperazin-1-yl)-11-(3-chloro-4-fluorophenyl)-3-(methoxymethoxy)-10-(trifluoromethyl)-3,4-dihydro-2H,6H-[1,4]thiazepino[2,3,4-ij]quinazolin-6-one]"
2,96%,"C=CC(=O)N1[C@H](C)CN(c2nc(=O)n3c4c(c(-c5ccc(F)c(Cl)c5)c(C(F)(F)F)cc24)SC[C@H](OCCOC)C3)C[C@@H]1C [Example 1028, (R)-8-((3S,5R)-4-acryloyl-3,5-dimethylpiperazin-1-yl)-11-(3-chloro-4-fluorophenyl)-3-(2-methoxyethoxy)-10-(trifluoromethyl)-3,4-dihydro-2H,6H-[1,4]thiazepino[2,3,4-ij]quinazolin-6-one]"
